Results from ChEMBL document CHEMBL1201862, “PubChem BioAssay data set” (2004).
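Briefly, cells in 96-well plates were exposed to five compound concentrations for 48 h, and endpoints were estimated by linear interpolation. GI50 marks 50% less growth.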 Calls of active or inactive are those of the source. No stated cut-off is given here; in the data, active = GI50 up to about 1.1 µM and inactive = higher.

How the values were obtained:
Test in all cases: NCI tumour cell line growth inhibition, 48 h
ACHN = test system: ACHN
DU-145 = test system: DU-145
HCC 2998 = test system: HCC 2998
HL-60 = test system: HL-60
HOP-62 = test system: HOP-62
HT-29 = test system: HT-29
Hs-578T = test system: Hs-578T
IGROV-1 = test system: IGROV-1
K562 = test system: K562
NCI-H23 = test system: NCI-H23
NCI-H460 = test system: NCI-H460
NCI-H522 = test system: NCI-H522
OVCAR-3 = test system: OVCAR-3
PC-3 = test system: PC-3
SF-268 = test system: SF-268
SF-295 = test system: SF-295
SK-MEL-2 = test system: SK-MEL-2
SK-MEL-5 = test system: SK-MEL-5
SW-620 = test system: SW-620
UO-31 = test system: UO-31

Which GI50 (ACHN) does the source give for `CC(C)=CCC[C@@H](C)C1=CC(=O)C(C)=C(O)C1=O` [ISOPEREZONE] here?
The GI50 was 3.85 µM (inactive).

What about the GI50 (DU-145) of the same compound?
Its GI50 is 6.08 µM (inactive).

And the GI50 (HCC 2998)?
Its GI50 is 17.1 µM (inactive).

What about the GI50 (HL-60) of the same compound?
Its GI50 is 0.3 µM (active).

And the GI50 (HOP-62)?
Its GI50 is 12.9 µM (inactive).

And the GI50 (HT-29)?
The GI50 was 7.16 µM (inactive).

What about the GI50 (Hs-578T) of the same compound?
The GI50 was 6.43 µM (inactive).

What about the GI50 (IGROV-1) of the same compound?
Its GI50 is 9.2 µM (inactive).

And the GI50 (K562)?
The GI50 was 1.58 µM (inactive).

And the GI50 (NCI-H23)?
The GI50 was 6.75 µM (inactive).

And the GI50 (NCI-H460)?
Its GI50 is 16.3 µM (inactive).

And the GI50 (NCI-H522)?
Its GI50 is 1.36 µM (inactive).

What about the GI50 (OVCAR-3) of the same compound?
The GI50 was 4.19 µM (inactive).

And the GI50 (PC-3)?
The GI50 was 5.01 µM (inactive).

What about the GI50 (SF-268) of the same compound?
The GI50 was 10.4 µM (inactive).

And the GI50 (SF-295)?
Its GI50 is 14.1 µM (inactive).

And the GI50 (SK-MEL-2)?
Its GI50 is 9.64 µM (inactive).

And the GI50 (SK-MEL-5)?
The GI50 was 6.12 µM (inactive).

And the GI50 (SW-620)?
Its GI50 is 4.02 µM (inactive).

And the GI50 (UO-31)?
The GI50 was 3.69 µM (inactive).
